Source: US7576054B2, “Compositions and methods for treating bacteria” (Biosynexus Incorporated, priority 2005, dated 2009)
Entries after “also recorded” stand apart in the source; their conditions may differ. Bridge positions count the residues as written; N and C are the ends. Square brackets hold non-standard residues; d marks the D form. Peptide text beside a SMILES is read from it. * marks the point of attachment. Ileψ(thiazoline)Cys = CC[C@H](C)[C@H](N)C1=N[C@H](C(=O)*)CS1; dOrn = NCCC[C@@H](N)C(=O)O

How the values were obtained:
P. aeruginosa [1] = test: P. aeruginosa infection in abraded mouse skin; format: in vivo; conditions: FIG. 4
P. aeruginosa [2] = conditions: previously shown; cited from earlier work
[3] = tested on: S. aureus strain resistant to mupirocin; test: Mupirocin-resistant S. aureus infection in abraded mouse skin; format: in vivo; conditions: FIG. 3
Experimental: (§1) Mouse Skin Infection Model: An overnight culture of S. aureus grown in tryptic soy broth (SA8; range from 1 to 6×10^9 CFUs/mL) was centrifuged at 4000×g for 10 minutes and resuspended in an equal volume of phosphate buffered saline (PBS). The bacteria were diluted to a percent transmittance of 40 (Spectronic 20D+) and diluted a subsequent 1:1000 in PBS for a final bacteria concentration of about 3×10^5. SKH1 (hrhr) hairless mice (Charles River) were sedated with 0.2 mL of ketamine (80 mg/kg) and xylazine (32 mg/kg) delivered intraperitoneally. The upper back of the mice were scrubbed with a 70% alcohol wipe and allowed to dry. Fine abrasions were made on the backs' of the mice between the shoulders using 150 grit sandpaper. Bacteria were swabbed over the abraded area with a sterile, cotton-tipped applicator until the area was saturated with the solution.
Topical Ointment: 74 g of PEG 400 and 24 g of PEG 3350 were added to a 250 mL glass beaker and heated until all of the PEG 3350 was melted. […]
Treatment of Infected Skin with Topical Ointment: Treatments aimed to eradicate S. aureus skin infections in the mouse model were started on the morning after infection (Day 1). […] After mixing by vortex, 50 μL of each sample was streaked onto blood agar plates, incubated at 37° C. overnight, and the colonies were counted and compared to untreated controls. […]

S. aureus [4] = test: Suture skin infection (deep tissue infection) mouse model; format: in vivo; conditions: deep cut in mouse, S. aureus introduced into the incision; FIG. 13
Experimental: It was determined whether nisin and mupirocin, either alone or in combination with each other, would be able to treat S. aureus in a deep tissue infection model. A suture skin infection model was generated in which a deep cut (e.g., one needing sutures to close) was made in a mouse and S. aureus introduced into the incision. […] Thus, a combination of nisin and mupirocin can be used to treat a deep tissue infection as well as a […] infection.

[5] = tested on: Staphylococcus aureus ATCC #6538; test: Inoculated partial thickness wounds in pig; format: in vivo; conditions: treated twice per day, mean ± SD
Experimental: Experimental animals. A young female specific pathogen free (SPF: Looper Farms, North Carolina) pig weighing 25-30 kg was kept in house for two weeks prior to initiating the experiment. The animal was fed a basal diet ad libitum and housed individually in animal facilities (meeting American Association for Accreditation of Laboratory Animal) with controlled temperature (19-21° C.) and lights (12 h/12 h LD). The experimental animal protocols used for this study followed the federal guidelines for the care and use of laboratory animals (U.S. Department of Health and Human Services, U.S. Department of Agriculture). Animals were monitored daily for any observable signs of pain or discomfort. […] A small amount of the inoculum suspension was plated onto culture media to quantitate the exact concentration of viable organisms prior to the experiment. […] At each sampling time, sites were cultured quantitatively. […] Serial dilutions were made and scrub solutions were quantitated using the Spiral Plater System that deposits a small defined amount (50 μl) of suspension over the surface of a rotating agar plate. […]

S. aureus [6] = test: Mouse skin infection model: S. aureus infection in abraded mouse skin; format: in vivo; conditions: for efficacy compared with independent administration of nisin: PEG ointment or G&W petrolatum base bacitracin formulation, FIG. 2; for additive or synergistic effect when combined with nisin: skin infection, combined with nisin (See Example 1)
Experimental: as §1
Topical Ointment: 74 g of PEG 400 and 24 g of PEG 3350 were added to a 250 mL glass beaker and heated until all of the PEG 3350 was melted. The solution was stirred well and allowed to cool to room temperature, which results in a smooth, opaque ointment. Powdered nisin and bacitracin were added to the ointment on a w/w basis and stirred until homogenously mixed. For formulations containing mupirocin, 1 g of Bactroban Ointment was weighed into a container and powdered nisin added to 2% or 6% (w/w) and mixed well. Lysostaphin was first dissolve to a concentration of about 150 mg/mL in DI water before mixing into the ointment to give a final concentration of 2% (w/w).
Treatment of Infected Skin with Topical Ointment: Treatments aimed to eradicate S. aureus skin infections in the mouse model were started on the morning after infection (Day 1). About 0.1 g of the topical ointments containing nisin (0, 2, or 6% w/w), mupirocin (0 or 2%), bacitracin (0 or 500U), and lysostaphin (0 or 2% w/w) were swabbed over the infected area 3 times a day on Days 1 and 2 using a sterile, polyester-tipped applicator. The mice were sacrificed by CO2 asphyxiation on the morning of Day 3 and a 0.5-cm^2 patch of skin around the infected area was excise. The skin sample was dissected and placed into a test tube containing 1 mL of 5 mg/mL proteinase K, 20 mg/mL esterase, and 20 mg/mL activated charcoal in PBS to neutralize the activity of the antibacterial agents. Bacteria were dislodged from the skin sample by sonication: 2 minute treatments per sample with alternating 5 seconds at 3 W and 5 seconds at 0 W in a Virsonic 600 with microtip (VirTis). After mixing by vortex, 50 μL of each sample was streaked onto blood agar plates, incubated at 37° C. overnight, and the colonies were counted and compared to untreated controls.
For the following data, except where noted in FIG. 2, all antibiotic formulations were in a common polyethylene glycol (PEG) ointment (PEG 400 plus PEG 3350).

S. aureus [7] = test: In vitro MIC of nisin alone or in combination (log reduction of viable S. aureus); format: cell-based; conditions: FIG. 11
Experimental: In order to determine if nisin could function in a synergistic way with other antimicrobials to treat (e.g., kill and/or inhibit growth of) bacteria in vitro, the minimum inhibitory concentration (MIC) of nisin alone or nisin in combination with either mupirocin, neomycin or gentamicin were tested. The MIC was determined by calculating the log reduction of viable S. aureus following incubation with the amounts of nisin and other antimicrobials as indicated in FIG. 11.

S. aureus [8] = test: Superficial skin abrasion / superficial wound skin infection model; format: in vivo; conditions: for synergy with mupirocin in the skin infection model: used in combination with mupirocin; for synergy with nisin in the skin infection model: used in combination with nisin
Experimental: Mice provided a superficial skin abrasion and inoculated with S. aureus as described in Example 2 were treated with a composition comprising a combination of 6% nisin and 0.1% gentamicin.
In order to determine if nisin could function in a synergistic way with other antimicrobials to treat (e.g., kill and/or inhibit growth of) bacteria in a superficial wound model (See Example 2), nisin was used in combination with either neomycin or gallidermin and tested.
In order to determine if nisin or gallidermin could function in a synergistic way with other antimicrobials to treat (e.g., kill and/or inhibit growth of) bacteria in a superficial wound model (See Example 2), nisin or gallidermin were used in combination with either gentamicin and mupirocin, respectively, and tested. Nisin did synergize with gentamicin and gallidermin did synergize with mupirocin to reduce bacterial counts in the skin infection model.
In order to determine if mupirocin could function in a synergistic way with bacitracin to treat (e.g., kill and/or inhibit growth of) bacteria in a superficial wound model (See Example 2), mupirocin was used in combination with bacitracin and tested for the ability to treat bacteria.

Compound | ability to synergize in vitro with nisin (S. aureus [7]) | synergy with mupirocin in the skin infection model (S. aureus [8]) | efficacy compared with independent administration of nisin (S. aureus [6]) | additive or synergistic effect when combined with nisin (S. aureus [6]) | synergy with nisin in the skin infection model (S. aureus [8]) | also measured
C/C(=C\C(=O)OCCCCCCCCC(=O)O)C[C@@H]1OC[C@H](C[C@@H]2O[C@H]2[C@@H](C)[C@H](C)O)[C@@H](O)[C@H]1O [Mupirocin, mupirocin] | none of the antimicrobials tested (i.e., mupirocin, neomycin, and gentamicin) displayed the ability to synergize in vitro with nisin | – | – | – | – | additional activity added to the nisin formulation (P. aeruginosa [1]): does not add any additional activity; activity against P. aeruginosa (P. aeruginosa [2]): poor activity; activity against mupirocin-resistant S. aureus strain [3]: minimal activity; efficacy in treating S. aureus in suture infection model (S. aureus [4]): very little efficacy; Av. Count (S. aureus recovered from wounds) ([5]; Day 7 post treatment): 1.63 ± 1.42 Log cfu/ml; Av. Count (S. aureus recovered from wounds) ([5]; two days after initial treatment): 4.96 ± 0.8 Log CFU/ml; decrease in infectious CFUs (S. aureus [6]; abraded mouse skin, drug alone in PEG ointment, 3 times a day on Days 1 and 2, skin sampled Day 3, vs untreated controls, FIG. 1): 3 logs; animals cleared of infection (S. aureus [6]; abraded mouse skin, topical ointment 3 times a day on Days 1 and 2, FIG. 1): Neither drug alone was able to completely clear the infection
CC[C@H](C)[C@H](N)C1=N[C@H](C(=O)N[C@@H](CC(C)C)C(=O)N[C@H](CCC(=O)O)C(=O)N[C@H](C(=O)N[C@H]2CCCCNC(=O)[C@H](CC(N)=O)NC(=O)[C@@H](CC(=O)O)NC(=O)[C@H](Cc3cnc[nH]3)NC(=O)[C@@H](Cc3ccccc3)NC(=O)[C@H]([C@@H](C)CC)NC(=O)[C@@H](CCCN)NC2=O)[C@@H](C)CC)CS1 [bacitracin] ({Ileψ(thiazoline)Cys}-L[dE]IK[dOrn]I[dF]H[dD]N; lactam 4-C) | – | did not synergize with bacitracin, nor was there an additive benefit; also recorded: does not synergize with or provide additive benefit together with bacitracin | None of these antibacterial agents administered independently, or administered in a composition comprising nisin, were significantly more efficacious than the independent administration of nisin | no additive or synergistic effect was observed | – | –
gallidermin | – | did synergize | – | – | did not synergize | –
gentamicin | none of the antimicrobials tested (i.e., mupirocin, neomycin, and gentamicin) displayed the ability to synergize in vitro with nisin | – | – | – | did synergize | –
lysostaphin | – | – | None of these antibacterial agents administered independently, or administered in a composition comprising nisin, were significantly more efficacious than the independent administration of nisin | no additive or synergistic effect was observed | – | –
neomycin | none of the antimicrobials tested (i.e., mupirocin, neomycin, and gentamicin) displayed the ability to synergize in vitro with nisin | – | – | – | did not synergize | –
